Entries after “also recorded” stand apart in the source; their conditions may differ. Each block holds one compound with its values, some of them ahead of it.
Key:
5‐LO [1] = target: T1, 5‐LO (Homo sapiens, UniProt P09917); experiment: Biosynthesis of 5‐LO products in stimulated HEK293 cells expressing 5‐LO and FLAP; assay type: cell-based; design: expressed in transfected cells; host or cells: HEK293 cells (ATCC), stably transfected; details: 1 μmol/L, 5 min preincubation; 10 μmol/L A23187 + 10 μmol/L arachidonic acid 15 min
T1 sequence (P09917 1-674): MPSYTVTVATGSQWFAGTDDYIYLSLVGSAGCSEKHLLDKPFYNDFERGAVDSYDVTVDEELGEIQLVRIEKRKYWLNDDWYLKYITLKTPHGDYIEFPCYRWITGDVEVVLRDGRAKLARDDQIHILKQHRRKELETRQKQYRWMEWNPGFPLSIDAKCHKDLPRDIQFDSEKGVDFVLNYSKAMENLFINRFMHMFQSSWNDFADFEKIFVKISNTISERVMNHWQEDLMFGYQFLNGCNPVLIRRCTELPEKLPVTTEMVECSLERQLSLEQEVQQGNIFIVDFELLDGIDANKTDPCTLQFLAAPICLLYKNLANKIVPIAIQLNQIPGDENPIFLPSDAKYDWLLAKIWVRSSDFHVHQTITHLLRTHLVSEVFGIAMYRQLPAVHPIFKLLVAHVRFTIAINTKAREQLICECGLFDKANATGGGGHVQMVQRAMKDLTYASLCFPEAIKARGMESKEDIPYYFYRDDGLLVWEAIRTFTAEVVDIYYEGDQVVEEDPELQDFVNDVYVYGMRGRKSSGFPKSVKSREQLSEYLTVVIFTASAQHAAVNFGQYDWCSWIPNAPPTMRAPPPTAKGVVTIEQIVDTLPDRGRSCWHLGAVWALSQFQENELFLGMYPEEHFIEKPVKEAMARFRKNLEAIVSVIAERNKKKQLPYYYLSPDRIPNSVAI
Description: HEK293 cells were obtained from ATCC (Manassas) and were cultured in Dulbecco’s Modified Eagle Medium (DMEM) supplemented with 10% fetal bovine serum. Cells were stably transfected with 5‐lipoxygenase and 5‐lipoxygenase activating protein (FLAP) as previously described.31
Transfected HEK293 cells were collected and resuspended in Hank's balanced salt solution (HBSS, Lonza) containing 1.6 mmol/L CaCl2 at a concentration of 5 × 10^5 cells/mL, and were preincubated with each compound at concentration of 1 µmol/L for 5 minutes at 37°C. Cells were then stimulated for 15 minutes at 37°C with the addition of 10 µmol/L calcium ionophore A23187 (Sigma‐Aldrich) and 10 µmol/L arachidonic acid (Cayman Chemical).28 Stimulations were stopped by adding 0.5 volume of cold CH3OH:CH3CN (1:1) containing 100 ng/mL of prostaglandin B2 (PGB2) as internal standard. Samples were stored at −20°C and analyzed for 5‐LO products using reversed‐phase high‐performance liquid chromatography (RP‐HPLC) as described previously.32
Figure 2 The structures of the tested compounds (A) and their effects on the biosynthesis of 5‐LO products in transfected HEK293 cells (B). HEK293 cells expressing 5‐LO and FLAP were incubated in presence of the indicated compounds (1 μmol/L) or their diluent (Control, 0.1% DMSO) for 5 minutes, followed by the addition of 10 μmol/L calcium ionophore A23187 and 10 μmol/L arachidonic acid for 15 minutes. Reactions were then stopped, and samples were processed for analysis of 5‐LO products using RP‐HPLC. Total 5‐LO products measured represent the sum of LTB4, its trans isomers and 5‐hydroxyeicosatetraenoic acid. Data are expressed as means ± SEM of at least three independent experiments. *Difference from control as determined using one‐way ANOVA with Dunnett's multiple comparison test (P < .05)

5‐LO [2] = details: cited from earlier work
HepaRG cells [3] = experiment: Residual inhibition of 5‐LO product biosynthesis in blood after incubation with HepaRG cells; assay type: in vitro ADME, human; details: 50 µmol/L with HepaRG cells, after 60 minutes; medium added to blood, zymosan, LTB4
Description: (§1) Differentiated HepaRG cells, plated in 24 well plates, were washed with hepatocyte suspension medium (Williams E‐medium without phenol red, supplemented with 2 mmol/L Glutamax and […] HEPES) before addition of hepatocyte suspension medium (250 µL/well) containing (30 or 50 µmol/L) of the test compounds or their diluent. Cells were then incubated for 7.5, 15, 30, 60 or 90 minutes at 37°C after which the medium was removed.
In experiments where the inhibitory capacity of test compounds was to be determined after incubation with HepaRG cells, 125 µL of the hepatocyte suspension medium containing test compounds that had been collected at different time points from HepaRG cultures was added to 1 mL of heparinized blood. After a 5 minutes of preincubation, blood was then stimulated with opsonized zymosan and processed for HPLC analysis of 5‐LO metabolites as described above.
Figure 6 Stability of the test compounds for the inhibition of the biosynthesis of 5‐LO products following incubation with HepaRG cells. HepaRG cells were incubated with […] of hepatocyte suspension medium containing 50 µmol/L of test compounds for the indicated times at 37°C. Hepatocyte suspension medium (125 µL) was then removed and added to 1 mL of blood that was then incubated for 5 minutes and then stimulated with opsonized zymosan (4 mg/mL) for 30 minutes at 37°C. Blood was then centrifuged and plasma was collected and added to 1.2 mL of CH3OH:CH3CN (1:1). Samples were processed for analysis using RP‐HPLC for LTB4 quantification. Data are expressed as means ± SEM of at least three independent experiments. *Difference from time = 0, as determined using One‐way ANOVA with Dunnett's multiple comparison test (P < .05)

HepaRG cells [4] = experiment: Kinetics of test compound disappearance in HepaRG cell culture (HPLC); assay type: in vitro ADME, human; details: 30 µmol/L, 37°C; mean (95% confidence interval), four experiments
Description: Undifferentiated cryopreserved HepaRG cells (BioPredic International) were seeded in 12 or 24 well plates at 1.1 × 10^5 and 0.55 × 10^5 cells per well, respectively. Cells were cultured for 14 days in Williams E‐medium supplemented with 1% penicillin‐streptomycin (10 000 U/mL), 10% fœtal bovine serum (FBS), 50 mg/L hydrocortisone hemisuccinate, 5 mg/L insulin and 2 mmol/L Glutamax, and the medium was renewed every 2‐3 days. After 14 days, the culture medium was replaced by the same formulation as above supplemented with 2% dimethyl sulfoxide (DMSO) to induce differentiation. Cells were considered differentiated and ready for experiments after 14 days of differentiation (28 days after seeding).
as §1
In experiments where the test compounds incubated with HepaRG cells were to be measured, the cell layer was washed with 250 µL of hepatocyte suspension medium which was then pooled with the first medium. The mixture was then added to 250 µL of ice cold CH3OH:CH3CN (1:1, vol:vol) containing 10 µmol/L of phenethyl 3,4,5‐trimethoxycinnamate as an internal standard. The resulting solution was frozen at −80°C for 2 hour to precipitate any dissolved proteins, centrifuged at 1800g and the supernatant transferred to vials and stored at −20°C until HPLC analysis.
Figure 5 Kinetics of test compound disappearance in HepaRG cell culture. (A) HepaRG cells were incubated in 250 µL of hepatocyte suspension medium containing 30 µmol/L of test compounds for the indicated times at 37°C. Supernatants were removed and added to 250 µL of ice cold CH3OH:CH3CN (1:1 vol:vol) containing 10 µmol/L of phenethyl 3,4,5‐trimethoxycinnamate as an internal standard. The cell layer was washed with 250 µL of hepatocyte suspension medium and added to the above mixture. Samples were centrifuged at 1900g and the supernatants were collected for HPLC analysis as described in the Methods. Values are means ± SEM. (B) Calculated half‐lives of the test compounds in HepaRG cell cultures. Values are means (95% confidence interval). All data are from four independent experiments TEXT PRINTED IN THE PICTURE: (B) CAPE (2): Half-life (Minutes): 4.70 (4.42 - 5.02) | (B) 7: Half-life (Minutes): 6.42 (5.72 -7.31) | (B) 5: Half-life (Minutes): 3.71 (3.67-3.74) | (B) 8: Half-life (Minutes): 6.48 (6.01-7.04) | (B) 9: Half-life (Minutes): 4.38 (4.23 - 4.55) | (B) 10: Half-life (Minutes): 11.32 (10.21- 12.71)

5‐LO [5] = target: T1, 5‐LO; experiment: Biosynthesis of 5‐LO products in thapsigargin‐stimulated human PMNL; assay type: cell-based; design: endogenous in cells; host or cells: human polymorphonuclear leukocytes isolated from heparinized blood; details: 5‐LO product biosynthesis in human PMNL; mean (95% confidence interval)
Description: Heparinized blood (see Ethics statement) was collected, centrifuged at 200g for 10 minutes to collect plasma, and erythrocytes were sedimented in dextran. PMNL were obtained after centrifugation on a lymphocyte separation medium cushion (density, 1.077 g/mL) (Wisent) at 900 g for 20 minutes, followed by hypotonic lysis to remove residual erythrocytes.33 PMNL were counted and resuspended at 10^7 cells/mL in HBSS supplemented with 1.6 mmol/L CaCl2 and 0.3 U/mL adenosine deaminase (Sigma‐Aldrich). PMNL were preincubated with the test compounds or their diluent (0.1% DMSO) for 5 minutes at 37°C and were then stimulated with 1 µmol/L thapsigargin (Sigma‐Aldrich) for 15 minutes at 37°C.27 Reactions were stopped by adding two volumes of CH3OH:CH3CN (1:1) containing the internal standard PGB2 (100 ng/mL), and samples were processed for RP‐HPLC analysis of 5‐LO products.
(A) The structures of CAPE (2) and its analogues investigated in this study. (B) Isolated human PMNL were incubated in presence of test compounds (1 μmol/L) or their diluent (Control, 0.1% DMSO) for 5 minutes. PMNL were stimulated with 1 μmol/L of thapsigargin for 15 minutes at 37°C. The stimulation was then stopped, and samples were processed for analysis of 5‐LO products using RP‐HPLC. Total 5‐LO products measured represent LTB4, its trans isomers, 20‐OH‐LTB4, 20‐COOH‐LTB4 and 5‐hydroxyeicosatetraenoic acid. Data are expressed as means ± SEM of at least three independent experiments. *Difference from control, as determined using one‐way ANOVA with Dunnett's multiple comparison test (P < .05)

5‐LO [6] = target: T1, 5‐LO; experiment: Ex vivo whole blood stimulation with opsonized zymosan, 5‐LO products; assay type: cell-based; design: endogenous in cells; host or cells: human polymorphonuclear leukocytes isolated from heparinized blood; details: 5‐LO product biosynthesis in whole blood, mean (95% confidence interval)
Description: Blood was collected in tubes containing heparin as anticoagulant. Test compounds or their diluent control (DMSO, 0.1%) were added to 1 mL of heparinized blood at the indicated concentrations and incubated for 5 minutes in a water bath at 37°C. Stimulation was initiated with the addition of 125 μL of 40 mg/mL of opsonized zymosan, samples were then gently vortexed and incubated at 37°C for 30 minutes.34 Samples were then centrifuged at 960g for 10 minutes at 4°C, plasma was removed and added to tubes containing 4 volumes of CH3OH:CH3CN (1:1) containing 100 ng/mL of PGB2 as internal standard. Samples were stored overnight at −20°C, and then centrifuged at 3300g for 10 minutes. Samples were then purified on C18 cartridges, were eluted with CH3OH, dried under nitrogen, resuspended in 46% of CH3OH:CH3CN (1:1), and analyzed using RP‐HPLC as described above.

Compound: O=C(/C=C/c1cc(O)cc(O)c1)OCCc1ccccc1 [compound 6]
- Inhibition of biosynthesis of 5‐LO products in transfected HEK293 cells (5‐LO [1]): without measurable effect; also recorded: without inhibitory activity

- Inhibition of biosynthesis of 5‐LO products in transfected HEK293 cells (5‐LO [1]): very good inhibitory activity
Compound: O=C(/C=C/c1cccc(O)c1O)OCCc1ccccc1 [compound 3]

Compound: O=C(C=Cc1ccc(O)c(O)c1)NCCc1ccccc1 [amide analogue of CAPE]
- Inhibition of LT biosynthesis and 5‐LO activity (5‐LO [2]): reduced potency compared to CAPE

- Inhibition of biosynthesis of 5‐LO products in transfected HEK293 cells (5‐LO [1]): less effective than CAPE (2)
- Inhibitory activity against 5‐LO product biosynthesis after incubation with HepaRG cells (HepaRG cells [3]): steady manner over time
Compound: CC(c1cc2ccccc2s1)N(O)C(N)=O (stereo not shown) [Zileuton (1), Zileuton, reference compound]

Compound: O=C(/C=C/c1ccc(O)cc1O)OCCc1ccccc1 [compound 4]
- Inhibition of biosynthesis of 5‐LO products in transfected HEK293 cells (5‐LO [1]): without measurable effect; also recorded: without inhibitory activity

Compound: O=C(CCc1ccc(O)c(O)c1)OCCc1ccccc1 [saturated form of CAPE (2)]
- Inhibition of 5‐LO product biosynthesis (5‐LO [2]): as effective

- Half-life in HepaRG cell cultures (HepaRG cells [4]): 4.38 (4.23 - 4.55) Minutes
- IC50 (5‐LO [5]): 290 nM
- IC50 (5‐LO [6]): 1910 nM
- Inhibitory activity against 5‐LO product biosynthesis after incubation with HepaRG cells (HepaRG cells [3]): lost all their inhibitory activity
Compound: COc1cc(/C=C/C(=O)OCCc2ccccc2)cc(OC)c1O [compound 9, sinapic acid phenethylester]

Compound: O=C(O)/C=C/c1ccc(O)c(O)c1 [caffeic acid]
- Inhibition of LT biosynthesis and 5‐LO activity (5‐LO [2]): poor 5‐LO inhibitor

Compound: O=C(C=Cc1ccccc1)OCCc1ccccc1 [cinnamic acid phenethyl ester]
- Inhibition of LT biosynthesis (5‐LO [2]; at concentrations up to 10 µmol/L): do not inhibit LT biosynthesis

Reference: paper PMC6743424, “Phenolic acid phenethylesters and their corresponding ketones: Inhibition of 5‐lipoxygenase and stability in human blood and HepaRG cells” (Pharmacology Research & Perspectives, 2019)
